Source: publication PMC7782499, “Progerinin, an optimized progerin-lamin A binding inhibitor, ameliorates premature senescence phenotypes of Hutchinson-Gilford progeria syndrome” (Communications Biology, 2021)

Columns and labels:
Lmna G609G/G609G mouse = assay: Life span of Lmna G609G/G609G progeria model mice; format: in vivo; settings: i.p. 20 mg/kg twice a week from 5 weeks old
Source text: Fig. 3 In vivo favorable effect of SLC-D011. A Gross morphology of Lmna^G609G/G609G mice (10 weeks old) was ameliorated after injection with SLC-D011. At the same age, the experimental group (D011) of mice were larger than vehicle-injected control (Con) subjects regardless of gender. B, C SLC-D011 increases body weight B and extends life span C of Lmna^G609G/G609G progeria model mouse (Con: n = 8; SLC-D011: n = 8). Compared with 14.8 weeks of average (ave) life span with maximum (max) life span of 15.5 weeks, 20 mg/kg of intraperitoneal (i.p) injection (twice a week) of SLC-D011 could extend the life span upto 19 weeks (max = 21 weeks). Lmna^G609G/G609G mice were injected with SLC-D011 from age of 5-week old, *p < 0.05. D Gross morphology of SLC-D011 injected Lmna^G609G/+ mouse. […] E SLC-D011 increases body weights of Lmna^G609G/+ mice (Con: n = 10; SLC-D011: n = 11), *p < 0.05. F Favorable effect of SLC-D011 on life span of Lmna^G609G/+ mice. […] Only the axis reads Age (weeks).
Fig. 4 Oral administration of SLC-D011 suppresses premature aging features. […] H Anti-aging effects of single treatment of SLC-D011 or lonafarnib were measured in HGPS patients-derived cells (AG11513, AG03199, AG11498, and AG03198, Coriell Cell Repositories). […]

CYP1A2 = molecular target: T1, CYP1A2 (Homo sapiens, UniProt P05177); assay: CYP inhibition, CYP1A2; format: in vitro ADME
T1 sequence (P05177 1-516): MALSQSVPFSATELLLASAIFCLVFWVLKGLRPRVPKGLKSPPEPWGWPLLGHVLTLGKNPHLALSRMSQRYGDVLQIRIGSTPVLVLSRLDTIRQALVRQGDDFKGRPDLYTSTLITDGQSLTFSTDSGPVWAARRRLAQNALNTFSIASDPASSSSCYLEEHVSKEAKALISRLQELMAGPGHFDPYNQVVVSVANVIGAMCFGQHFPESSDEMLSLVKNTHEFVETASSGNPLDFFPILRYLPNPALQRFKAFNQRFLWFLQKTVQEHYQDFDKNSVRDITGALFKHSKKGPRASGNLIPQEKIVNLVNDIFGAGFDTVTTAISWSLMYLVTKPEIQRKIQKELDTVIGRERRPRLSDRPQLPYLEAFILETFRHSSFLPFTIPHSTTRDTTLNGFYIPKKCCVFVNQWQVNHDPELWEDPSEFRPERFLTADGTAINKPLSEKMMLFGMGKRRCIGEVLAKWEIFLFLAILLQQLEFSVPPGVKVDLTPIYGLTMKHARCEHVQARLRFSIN
Description: At pre-set time-points, blood concentration of JH4 was determined by LC-MS/MS analysis[22],[23]. Other chemicals were also tested using similar protocol. In vitro ADME studies (plasma protein binding, CYP inhibition, microsomal stability, plasma stability, and hERG inhibition) were performed by New Drug Development Center (Daegu, Korea) using standard protocols[24],[25].

With `CC1(C)Oc2cc3oc(=O)ccc3cc2C[C@@H]1OC/C=C/c1ccccc1` [SLC-D011] the Maximum life span (Lmna G609G/G609G mouse) was 21 weeks and the CYP inhibition (CYP1A2) was 81.6.
